Reference: US9895322B2, “Pharmaceutical compositions for the delivery of substantially water-insoluble drugs” (priority 2012, dated 2018)
Converted amounts (≈) assume the structure as drawn.

Key:
[1] = system: Taxol resistant cell line; experiment: cytopathic effects on Taxol resistant cell line (FIG. 10, 11); assay type: cell-based; settings: 5 microgram/ml Taxol, FIG. 11
Source text: FIG. 10A. A taxol resistant cell line without treatment (in vitro) showing aggressive growth. FIG. 10B. The same cell line treated with the hybrid taxol, showing cytopathic effects.

[2] = cited from earlier work; for water solubility: background statement

| Structure (SMILES) | cytopathic effects at very low concentration [1] | water solubility [2] | solubility in DMSO ([2]; DMSO) [mg/mL] | solubility in water ([2]; estimated) [µM] | solubility in ethanol ([2]; ethanol, with warming) [mg/mL] |
| --- | --- | --- | --- | --- | --- |
| CC(=O)O[C@H]1C(=O)[C@@]2(C)[C@H]([C@H](OC(=O)c3ccccc3)[C@]3(O)C[C@H](OC(=O)[C@H](O)[C@@H](NC(=O)c4ccccc4)c4ccccc4)C(C)=C1C3(C)C)[C@]1(OC(C)=O)CO[C@@H]1C[C@@H]2O [Taxol, paclitaxel] | cytopathic effects are observed | very poorly water-soluble | – | – | – |
| C=C(c1ccc(C(=O)O)cc1)c1cc2c(cc1C)C(C)(C)CCC2(C)C [Bexarotene] | – | poorly soluble in water | 65 (≈ 187 mM) | 10 to 50 | 10 (≈ 28.7 mM) |
| CC1=C(/C=C/C(C)=C/C=C/C(C)=C/C(=O)O)C(C)(C)CCC1 [All-trans-retinoic acid] | – | not water-soluble | – | – | – |
